19 molecules from patent publication US20130109682A1, “CYCLIC ETHER COMPOUNDS USEFUL AS KINASE INHIBITORS” (NOVARTIS AG, priority 2010, published 2013) can be followed below.

Like-named read-outs stand apart in the source and are kept apart here.

As usually defined, the IC50 is the concentration at which inhibition is half-maximal.

Holding throughout (format): biochemical
One assay deals with PKCα (Homo sapiens, UniProt P17252). The experiment in a line: PKCα kinase Caliper assay. The conditions noted are these: read-out: PKC IC50. Here is the method:
PKCα and cABLT315 Kinase Caliper Assays
Assays were performed in 384 well microtiter plates. Each assay plate contained 8-point serial dilutions for test compounds, as well as two 16-point serial dilutions of staurosporine as reference compound, plus 16 high- and 16 low controls. Liquid handling and incubation steps were done on a Thermo CatX workstation equipped with a Innovadyne Nanodrop Express. Between pipetting steps, tips were cleaned in wash cycles using wash buffer. Plates with terminated kinase reactions were transferred to the Caliper LC3000 workstations for reading. Phosphorylated and unphosphorylated peptides were separated using the Caliper microfluidic mobilitishift technology and Kinase activities were calculated from the amounts of formed phospho-peptide.
1. 0.05 μA Compound (start with 1.8 mM in 90% DMSO/10% H2O)
2. +4.5 μl 2× peptide/ATP solution
3. +4.5 μl 2× enzyme solution
4. Incubate for 60 min at 30° C.
4. +16 μl stop/run buffer
Independent of the kinase, all reactions were done performed in 50 mM HEPES, pH 7.5, 1 mM DTT, 0.02% Tween20, 0.02% BSA, and 0.6% DMSO.

Another assay has as its target GSK3β (Homo sapiens, UniProt P49841). Nature of the assay: GSK3β ATP depletion assay. The conditions noted are these: read-out: GSK3b IC50. The gist of the method:
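Kinase activity is read as ATP consumption: luciferase luminescence reports the ATP remaining once roughly half of the 2 μM ATP is used. Reaction mix: 5 nM GSK3β, 10 μM b-CREB peptide, 50 mM Tris pH 7.5, 15 mM MgCl2, 1 mM DTT, 0.1% BSA, 2.5% DMSO. Enzyme and peptide are preincubated 15 min before ATP is added.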

For a further assay, the target named is PDGFRaV561D kinase (Homo sapiens, UniProt P16234, V561D). The experiment in a line: PDGFRaV561D kinase inhibition assay (LanthaScreen TR-FRET). Particulars: read-out: PDGFRa IC50. Here is the method:
PDGFRaV561D Kinase Inhibition Assay
LanthaScreen™ is the detection of Time-Resolved Fluorescence Resonance Energy Transfer (TR-FRET) using lanthanide chelates to measure interactions between various binding partners. The application of TR-FRET to assay kinase activity was first described by Mathis (1995). A TR-FRET assay was used to measure PDGFRaV561D kinase inhibitory activity. The assay panel was run on a Biomek FX liquid handling workstations. To the assay plates containing […] compound or control solutions, 4.5 μL of buffer A (50 mM TRIS-HCl pH 7.4, 2 mM DTT, 0.02% Tween 20, 0.02 mM Na3VO4, H2O nanpure) including a generic concentration of ATP (2 μM f.c.) was added per well, followed by […] of buffer B (4 uM ATP in Buffer A) including a generic concentration of polyEAY (50 nM f.c.), PDGFRaV561D kinase, and divalent cations. Final concentration of kinase and cations were: [PDGFRaV561D kinase]=4.4 nM, [Mn]=10 mM. After 1 hour of incubation the kinase reactions were stopped by the addition of 4.5 μL of stop solution D (50 mM EDTA, 20 mM TRIS-HCl pH 7.4, 0.04% NP-40) immediately followed by 4.5 μL of buffer A (50 mM TRIS-HCl pH 7.4, 2 mM DTT, 0.02% Tween 20, 0.02 mM Na3VO4, H2O nanpure) including the Tb-labeled P-20 antibody to give a total detection volume of […]. After an incubation time of 45 min in the dark, the plates were transferred into the Pherastar fluorescence reader for counting. The effect of compound on the enzymatic activity was obtained from the linear progress curves and determined from one reading (end point measurement).
On the technique in general: Time-resolved FRET reads energy transfer from a long-lived donor to a nearby acceptor.

Sequence of GSK3β (P49841 whole entry, species assumed): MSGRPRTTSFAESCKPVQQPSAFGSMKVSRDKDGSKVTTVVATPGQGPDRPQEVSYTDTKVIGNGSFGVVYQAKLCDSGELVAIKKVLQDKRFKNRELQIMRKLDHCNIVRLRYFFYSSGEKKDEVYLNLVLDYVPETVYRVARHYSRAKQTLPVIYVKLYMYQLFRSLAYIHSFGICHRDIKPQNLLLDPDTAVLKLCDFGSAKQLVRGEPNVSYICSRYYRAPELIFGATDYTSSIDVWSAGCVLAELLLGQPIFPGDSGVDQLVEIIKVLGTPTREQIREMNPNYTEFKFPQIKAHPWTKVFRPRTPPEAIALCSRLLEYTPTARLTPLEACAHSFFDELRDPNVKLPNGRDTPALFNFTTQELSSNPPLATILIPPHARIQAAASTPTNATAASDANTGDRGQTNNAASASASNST
Sequence of PDGFRaV561D kinase (P16234 24-1089 V561D): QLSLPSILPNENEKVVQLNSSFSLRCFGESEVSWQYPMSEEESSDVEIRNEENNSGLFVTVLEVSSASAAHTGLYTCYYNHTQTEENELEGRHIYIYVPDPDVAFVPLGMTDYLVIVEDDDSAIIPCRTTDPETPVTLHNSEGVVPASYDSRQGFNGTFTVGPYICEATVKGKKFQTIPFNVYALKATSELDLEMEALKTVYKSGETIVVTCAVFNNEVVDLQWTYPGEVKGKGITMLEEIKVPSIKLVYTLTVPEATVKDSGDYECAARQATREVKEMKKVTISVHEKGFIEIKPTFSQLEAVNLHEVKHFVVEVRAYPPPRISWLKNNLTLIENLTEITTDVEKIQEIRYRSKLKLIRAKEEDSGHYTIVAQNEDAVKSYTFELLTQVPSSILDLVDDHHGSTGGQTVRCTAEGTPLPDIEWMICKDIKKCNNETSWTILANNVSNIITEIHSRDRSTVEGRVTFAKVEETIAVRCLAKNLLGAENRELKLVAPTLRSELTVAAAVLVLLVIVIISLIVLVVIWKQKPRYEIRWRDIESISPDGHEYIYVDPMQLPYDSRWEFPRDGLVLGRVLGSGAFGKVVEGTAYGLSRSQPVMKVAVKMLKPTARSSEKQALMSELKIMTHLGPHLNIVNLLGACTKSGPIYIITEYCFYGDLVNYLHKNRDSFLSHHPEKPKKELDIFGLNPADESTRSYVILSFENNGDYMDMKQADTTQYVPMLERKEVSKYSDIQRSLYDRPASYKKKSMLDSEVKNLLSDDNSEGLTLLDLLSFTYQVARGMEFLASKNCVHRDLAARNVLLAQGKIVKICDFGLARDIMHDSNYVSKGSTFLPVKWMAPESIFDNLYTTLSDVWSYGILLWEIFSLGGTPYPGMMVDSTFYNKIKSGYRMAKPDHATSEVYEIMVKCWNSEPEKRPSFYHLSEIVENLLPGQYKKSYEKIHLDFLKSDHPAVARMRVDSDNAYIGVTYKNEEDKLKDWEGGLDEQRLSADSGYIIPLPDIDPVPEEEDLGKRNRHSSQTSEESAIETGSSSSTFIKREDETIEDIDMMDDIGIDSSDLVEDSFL

As to `C=C1[C@@H](O)C[C@@H](c2ccncc2NC(=O)c2nc(-c3ccccc3)cnc2N)OC12CC2` [Example 5, 3-amino-N-(4-((5S,7S)-7-hydroxy-8-methylene-4-oxaspiro[2.5]octan-5-yl)pyridin-3-yl)-6-phenylpyrazine-2-carboxamide], the IC50 was 60 nM on PKCα and 1 nM at GSK3β.

Consider `C[C@H]1O[C@@H](c2ccncc2NC(=O)c2nc(-c3ccccc3)ncc2N)C[C@@H](O)[C@]1(C)O` [Example 32, 5-amino-N-(4-((2R,4R,5S,6R)-4,5-dihydroxy-5,6-dimethyltetrahydro-2H-pyran-2-yl)pyridin-3-yl)-2-phenylpyrimidine-4-carboxamide], for which the IC50 on PKCα is more than 10000 nM; at GSK3β, 454 nM.

Turning to `Nc1ncc(-c2ccccc2)nc1C(=O)Nc1cnccc1[C@H]1C[C@@H](O)[C@H](O)[C@@H](CCl)O1` [Example 36, 3-amino-N-(4-((2R,4R,5S,6S)-6-(chloromethyl)-4,5-dihydroxytetrahydro-2H-pyran-2-yl)pyridin-3-yl)-6-phenylpyrazine-2-carboxamide], the results for the IC50 on PKCα and at GSK3β were 100 nM and 1 nM, respectively.

For the molecule `CC[C@H]1O[C@@H](c2ccncc2NC(=O)c2nc(-c3ccccc3)ncc2N)C[C@@H](O)[C@@H]1O` [Example 39, 5-amino-N-(4-((2R,4R,5S,6R)-6-ethyl-4,5-dihydroxytetrahydro-2H-pyran-2-yl)pyridin-3-yl)-2-phenylpyrimidine-4-carboxamide], the values for the IC50 on PKCα and at GSK3β were more than 10000 nM and 267 nM, respectively.

As for `C[C@H]1O[C@@H](c2ccncc2NC(=O)c2nc(-c3ccccc3)cnc2N)[C@H](F)[C@@H](O)[C@]1(C)O` [Example 58, 3-amino-N-(4-((2S,3R,4S,5S,6R)-3-fluoro-4,5-dihydroxy-5,6-dimethyltetrahydro-2H-pyran-2-yl)pyridin-3-yl)-6-phenylpyrazine-2-carboxamide], the IC50 at PKCα stood at 820 nM; on GSK3β, 1 nM.

`C[C@@H]1O[C@H](c2ccncc2NC(=O)c2nc(-c3ccccc3)cnc2N)[C@@H](F)[C@H](O)[C@@]1(C)O` [Example 63, 3-amino-N-(4-((2R,3S,4R,5R,6S)-3-fluoro-4,5-dihydroxy-5,6-dimethyltetrahydro-2H-pyran-2-yl)pyridin-3-yl)-6-phenylpyrazine-2-carboxamide]: the IC50 turned out to be 41 nM on PKCα and 2 nM on GSK3β.

As for `C[C@H]1O[C@@H](c2ccncc2NC(=O)c2nc(-c3ccccc3)cnc2N)C[C@@H](O)[C@]1(C)O` [Example 84, 3-amino-N-(4-((2R,4R,5S,6R)-4,5-dihydroxy-5,6-dimethyltetrahydro-2H-pyran-2-yl)pyridin-3-yl)-6-phenylpyrazine-2-carboxamide], the IC50 stood at 490 nM on PKCα and 1 nM on GSK3β.

For the molecule `C[C@@H]1O[C@H](c2ccncc2NC(=O)c2nc(-c3ccccc3)cnc2N)C[C@H](O)[C@@]1(C)O` [Example 86, 3-amino-N-(4-((2S,4S,5R,6S)-4,5-dihydroxy-5,6-dimethyltetrahydro-2H-pyran-2-yl)pyridin-3-yl)-6-phenylpyrazine-2-carboxamide], the figures for the IC50 on PKCα and on GSK3β were 790 nM and 3 nM, respectively.

As for `CC[C@]1(O)[C@H](O)C[C@H](c2ccncc2NC(=O)c2nc(-c3c(F)cccc3F)ncc2N)O[C@@H]1C` [Example 143, 5-amino-2-(2,6-difluorophenyl)-N-(4-((2R,4R,5S,6R)-5-ethyl-4,5-dihydroxy-6-methyltetrahydro-2H-pyran-2-yl)pyridin-3-yl)pyrimidine-4-carboxamide], the IC50 at PKCα is more than 10000 nM; at PDGFRaV561D kinase, more than 10000 nM; on GSK3β it was 102 nM.

Regarding `Nc1ncc(-c2ccccc2)nc1C(=O)Nc1cnccc1[C@H]1C[C@@H](O)[C@@]2(O)CCCC[C@H]2O1` [Example 173, 3-amino-N-(4-((2R,4R,4aS,8aR)-4,4a-dihydroxyoctahydro-2H-chromen-2-yl)pyridin-3-yl)-6-phenylpyrazine-2-carboxamide], the IC50 worked out at 310 nM on PKCα, 48 nM on PDGFRaV561D kinase and 1.4 nM at GSK3β.

With `Nc1ncc(-c2ccccc2)nc1C(=O)Nc1cnccc1[C@@H]1C[C@H](O)[C@]2(O)CCCC[C@@H]2O1` [Example 176, 3-amino-N-(4-((2S,4S,4aR,8aS)-4,4a-dihydroxyoctahydro-2H-chromen-2-yl)pyridin-3-yl)-6-phenylpyrazine-2-carboxamide], the concentration for half-maximal inhibition (IC50) on PKCα stood at 2600 nM; at PDGFRaV561D kinase it was 8000 nM; on GSK3β it was 48.5 nM.

In the case of `O=C(Nc1cnccc1[C@H]1C[C@@H](O)[C@@]2(O)CCCC[C@H]2O1)c1c[nH]cc(-c2ccccc2)c1=O` [Example 178, N-(4-((2R,4R,4aS,8aR)-4,4a-dihydroxyoctahydro-2H-chromen-2-yl)pyridin-3-yl)-4-oxo-5-phenyl-1,4-dihydropyridine-3-carboxamide], the IC50 at PKCα was more than 10000 nM; at PDGFRaV561D kinase it was more than 10000 nM; on GSK3β it was 4250 nM.

Turning to `Nc1ncc(-c2ccccc2)nc1C(=O)Nc1cnccc1[C@H]1C[C@@H](N)[C@@]2(O)CCC[C@H]2O1` [Example 183, 3-amino-N-(4-((2R,4R,4aS,7aR)-4-amino-4a-hydroxyoctahydrocyclopenta[b]pyran-2-yl)pyridin-3-yl)-6-phenylpyrazine-2-carboxamide], the IC50 was 34 nM at PKCα (PKCα Caliper assay), 23 nM at PDGFRaV561D kinase and 4.4 nM at GSK3β (ATP depletion assay).

Turning to `Nc1ncc(-c2ccccc2)nc1C(=O)Nc1cnccc1[C@@H]1C[C@H](N)[C@]2(O)CCC[C@@H]2O1` [Example 185, 3-amino-N-(4-((2S,4S,4aR,7aS)-4-amino-4a-hydroxyoctahydrocyclopenta[b]pyran-2-yl)pyridin-3-yl)-6-phenylpyrazine-2-carboxamide], the results for the IC50 at PKCα (PKCα Caliper assay), at PDGFRaV561D kinase and at GSK3β (ATP depletion assay) were 650 nM, 4100 nM and 670 nM, respectively.

Consider `Nc1ncc(-c2ccccc2)nc1C(=O)Nc1cnccc1[C@@H]1C[C@H](O)[C@]2(O)CCC[C@@H]2O1` [Example 186, 3-amino-N-(4-((2S,4S,4aR,7aS)-4,4a-dihydroxyoctahydrocyclopenta[b]pyran-2-yl)pyridin-3-yl)-6-phenylpyrazine-2-carboxamide], for which the results for the IC50 at PKCα, on PDGFRaV561D kinase and at GSK3β were 760 nM, more than 10000 nM and 40 nM, respectively.

`CC[C@]1(O)[C@H](N)C[C@H](c2ccncc2NC(=O)c2nc(-c3ccccc3)cnc2N)O[C@@H]1C` [Example 187, 3-amino-N-(4-((2R,4R,5S,6R)-4-amino-5-ethyl-5-hydroxy-6-methyltetrahydro-2H-pyran-2-yl)pyridin-3-yl)-6-phenylpyrazine-2-carboxamide]: the half-inhibitory concentration (IC50) at PKCα (PKCα Caliper assay) was found to be 50 nM; on PDGFRaV561D kinase it was 25 nM; on GSK3β (ATP depletion assay), 3.3 nM.

Take `CC[C@]1(O)[C@H](N)C[C@H](c2ccncc2NC(=O)c2ccc(F)c(-c3c(F)cccc3F)n2)O[C@@H]1C` [Example 232, N-(4-((2R,4R,5S,6R)-4-amino-5-ethyl-5-hydroxy-6-methyltetrahydro-2H-pyran-2-yl)pyridin-3-yl)-6-(2,6-difluorophenyl)-5-fluoropicolinamide]: the IC50 on PKCα (PKCα Caliper assay) is 9500 nM; at PDGFRaV561D kinase, 630 nM.

Turning to `CC(C)(C)[C@H]1O[C@@H](c2ccncc2NC(=O)c2nc(-c3ccccc3)cnc2N)C[C@H](N)[C@@H]1O` [Example 286, 3-amino-N-(4-((2R,4S,5S,6R)-4-amino-6-tert-butyl-5-hydroxytetrahydro-2H-pyran-2-yl)pyridin-3-yl)-6-phenylpyrazine-2-carboxamide], the IC50 on PDGFRaV561D kinase was 280 nM; at GSK3β (ATP depletion assay) it was 0.5 nM.

Consider `C[C@]1(O)[C@@H](N)C[C@H](c2ccncc2NC(=O)c2nc(-c3ccccc3)cnc2N)OC12CC2` [Example 351, 3-amino-N-(4-((5R,7S,8S)-7-amino-8-hydroxy-8-methyl-4-oxaspiro[2.5]octan-5-yl)pyridin-3-yl)-6-phenylpyrazine-2-carboxamide], for which the IC50 on PDGFRaV561D kinase is 18 nM; on GSK3β (ATP depletion assay), 0.4 nM.
